US10392422B2, “Macrocyclic broad spectrum antibiotics” (priority 2014, dated 2019)
In brackets after ≈: the same amount, converted by molar mass. Where two headings read alike, the source gives them in different places.

Columns and labels:
MRSA strain COL = experiment: Neutropenic thigh infection model, intravenous infusion; type: in vivo, CD-1 mice; details: Compound 115 (Css 2 or 6.4 ug/mL) co-dosed with imipenem (Css 0.3 μg/mL), infused 23 hours; 24 hours post infection; compared with either single agent; FIG. 3
Procedure: Jugular vein cannulated CD-1 mice were subjected to induced neutropenia (<100 cells/mm^3) by injecting 150 mg/kg and 100 mg/kg cyclophosphamide at day −5 and day −2 respectively. At day −1, saline was infused at […] for 12 hours using Harvard Apparatus PHD 2000 Infusion pumps. At day 0, mice were infected in the thigh muscle with MRSA strain COL 4×10^5 CFU/50 μL. Four test groups and one vehicle group began dosing at 1 hour post infection:
Group 1 was the vehicle control (3% HP-beta-cyclodextrin in PBS)
Group 2 was the imipenem (Imp) group dosed at a concentration of 0.21 mg/mL solution, infused at 80 μL/hour for 23 hours, with a target steady-state concentration (Css) of 0.3 μg/mL.
Group 3 was the SpsB inhibitor Compound 115 group dosed at a concentration of 2.14 mg/mL solution, infused at 80 μL/hour for 23 hours to achieve a steady state concentration (Css) of 6.4 ug/mL.
Group 4 was the SpsB inhibitor Compound 115 group dosed at 0.67 mg/mL solution (Css 2 ug/mL) co-dosed with imipenem at a concentration of 0.21 mg/mL (Css of 0.3 μg/mL) infused at 80 μL/hour for 23 hours. […]
At 24 hours post infection, bacterial burden in the thigh muscle was determined by plating the tissue homogenate in series dilutions on blood agar plates. […]

MRSA COL (NRS100) = experiment: MIC, broth micro-dilution technique (CLSI); type: cell-based, Staphylococcus aureus; details: Staphylococcus aureus, 22 h, read-out: MIC (μg/mL) (COL)
Method in brief: (§1)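 CLSI broth microdilution in cation-adjusted Mueller Hinton broth with 0.002% v/v Tween-80. Compounds were serially 2-fold diluted over 10 concentrations from 64 μg/ml, or from 4 μg/mL in a modified protocol; inoculum at final OD600 0.0005, incubated 35° C for 22 hours.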

[1] = system: Escherichia coli MC4100 harboring the IMP4213; experiment: MIC, broth micro-dilution technique (CLSI); type: cell-based; details: Escherichia coli, 22 h
Method in brief: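 CLSI broth microdilution in cation-adjusted Mueller Hinton broth with 0.002% Tween-80. Ten 2-fold dilutions started from 64 μg/ml, or from 4 μg/mL in the modified protocol. Inoculum at final OD600 0.0005; MIC read after 22 h at 35 °C. E. coli strain carries imp4213 (increased outer-membrane permeability).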

[2] = system: Methicillin Resistant Staphylococcus aureus strain USA 300 (NRS384); experiment: MIC, broth micro-dilution technique (CLSI); type: cell-based; details: Staphylococcus aureus, 22 h, read-out: MIC (μg/mL) S. aureus
Method in brief: as §1

[3] = read-out: MIC (μg/mL) E. coli, Table 1 protocol: serial 2-fold dilutions starting from 64 μg/ml, 35° C., 22 hours
[4] = Table 1 protocol: serial 2-fold dilutions starting from 64 μg/ml, 35° C., 22 hours
[5] = read-out: MIC (μg/mL) E. coli, Table 2 modified protocol: serial 2-fold dilutions starting from 4 μg/mL, 35° C., 22 hours
[6] = Table 2 modified protocol: serial 2-fold dilutions starting from 4 μg/mL, 35° C., 22 hours

| Compound | MIC (MRSA COL (NRS100)) [µg/mL] | MIC [2] [µg/mL] | MIC [1, 5] [µg/mL] | also measured |
| --- | --- | --- | --- | --- |
| CCCCCCCCCCNCCC(=O)N[C@@H](CCCCN)C(=O)N(C)[C@@H]1C(=O)N[C@@H](C)C(=O)N[C@H](C(=O)N[C@@H](C)C(C)=O)Cc2ccc(O)c(c2)-c2cc1ccc2OCCN [Compound 115] | 0.13 (≈ 0.15 µM) | 0.63 (≈ 0.728 µM) |  | bacterial burden in the thigh muscle (MRSA strain COL): greater reduction in bacterial burden; MIC [1, 3]: 19 µg/mL (≈ 22 µM) |
| CCCCCCCCc1ccc(C(=O)N[C@@H](CCCN)C(=O)N(C)[C@@H]2C(=O)N[C@@H](C)C(=O)N[C@H](C(=O)N[C@@H](C)B3O[C@@H]4C[C@@H]5C[C@@H](C5(C)C)[C@]4(C)O3)Cc3ccc(OCCN)c(c3)-c3cc2ccc3OCCN)c(C)c1 [Compound 321] | 0.063 (≈ 0.06 µM) | 0.094 (≈ 0.0896 µM) |  | MIC [1, 3]: 0.063 µg/mL (≈ 0.06 µM) |
| CCCCCCCCc1ccc(C(=O)N[C@@H](CCCN)C(=O)N(C)[C@@H]2C(=O)N[C@@H](C)C(=O)N[C@H](C(=O)N[C@@H](C)B(O)O)Cc3ccc(OCCN)c(c3)-c3cc2ccc3OCCN)c(F)c1 [Compound 322] |  |  |  | MIC (MRSA COL (NRS100); [4]): 0.063 µg/mL (≈ 0.0686 µM); MIC [1, 3]: 0.13 µg/mL (≈ 0.141 µM); MIC [2, 4]: 0.13 µg/mL (≈ 0.141 µM) |
| CCCCCCCCc1ccc(C(=O)N[C@@H](CCCN)C(=O)N(C)[C@@H]2C(=O)N[C@@H](C)C(=O)N[C@H](C(=O)N[C@@H](C)B3O[C@@H]4C[C@@H]5C[C@@H](C5(C)C)[C@]4(C)O3)Cc3ccc(OCCCN)c(c3)-c3cc2ccc3OCCCN)cc1 [Compound 323] | 0.031 (≈ 0.0292 µM) | 0.13 (≈ 0.122 µM) | 0.063 (≈ 0.0593 µM) |  |
| CCCCCCCCc1ccc(C(=O)N[C@@H](CCCN)C(=O)N(C)[C@@H]2C(=O)N[C@@H](C)C(=O)N[C@H](C(=O)NCB3O[C@@H]4C[C@@H]5C[C@@H](C5(C)C)[C@]4(C)O3)Cc3ccc(OCCN)c(c3)-c3cc2ccc3OCCN)cc1 [Compound 324] | 0.13 (≈ 0.127 µM) | 0.25 (≈ 0.245 µM) | 0.13 (≈ 0.127 µM) |  |
| CCCCCCCCCCCCCC(=O)N[C@@H](CCN)C(=O)N(C)[C@@H]1C(=O)N[C@@H](C)C(=O)N[C@H](C(=O)N[C@@H](C)B2O[C@@H]3C[C@@H]4C[C@@H](C4(C)C)[C@]3(C)O2)Cc2ccc(OCCN)c(c2)-c2cc1ccc2OCCN [Compound 325] | 0.023 (≈ 0.0227 µM) | 0.13 (≈ 0.128 µM) | 0.13 (≈ 0.128 µM) |  |
| CCCCCCCCc1ccc(C(=O)N[C@@H](CCCN)C(=O)N(C)[C@@H]2C(=O)N[C@@H](C)C(=O)N[C@H](C(=O)NCB(O)O)Cc3ccc(OCCN)c(c3)-c3cc2ccc3OCCN)cc1 [Compound 326] |  |  | 0.19 (≈ 0.214 µM) | MIC (MRSA COL (NRS100); [6]): 0.13 µg/mL (≈ 0.147 µM); MIC [2, 6]: 0.25 µg/mL (≈ 0.282 µM) |
| CCCCc1ccc(-c2ccc(C(=O)N[C@@H](CCCN)C(=O)N(C)[C@@H]3C(=O)N[C@@H](C)C(=O)N[C@H](C(=O)NC/C=C/S(C)(=O)=O)Cc4ccc(OCCN)c(c4)-c4cc3ccc4OCCN)cc2)cc1 [Compound 327] |  |  | 0.5 (≈ 0.517 µM) | MIC (MRSA COL (NRS100); [6]): 0.13 µg/mL (≈ 0.134 µM); MIC [2, 6]: 0.5 µg/mL (≈ 0.517 µM) |
| CCCCc1ccc(-c2ccc(C(=O)N[C@@H](CCCCN)C(=O)N(C)[C@@H]3C(=O)N[C@@H](C)C(=O)N[C@H](C(=O)NCc4nnn[nH]4)Cc4ccc(OCCN)c(c4)-c4cc3ccc4OCCN)cc2)cc1 [Compound 328] | 0.5 (≈ 0.529 µM) | 2 (≈ 2.12 µM) |  | MIC ([1]; read-out: MIC (μg/mL) E. coli): 0.25 µg/mL (≈ 0.265 µM) |
| CCCCc1ccc(-c2ccc(C(=O)N[C@@H](CCCCN)C(=O)N(C)[C@@H]3C(=O)N[C@@H](C)C(=O)N[C@H](C(=O)NCc4nnn[nH]4)Cc4ccc(O)c(c4)-c4cc3ccc4OCCN)cc2)cc1 [Compound 329] | 2 (≈ 2.22 µM) | > 4 |  | MIC ([1]; read-out: MIC (μg/mL) E. coli): 0.38 µg/mL (≈ 0.421 µM) |
| CC(=O)[C@H](C)NC(=O)[C@@H]1Cc2ccc(OCCO)c(c2)-c2cc(ccc2OCCN)[C@H](N(C)C(=O)[C@H](CCCCN)NC(=O)c2ccc(-c3ccc(Cl)cc3)cc2)C(=O)N[C@@H](C)C(=O)N1 [Compound 330] | 1 (≈ 1.1 µM) | 3 (≈ 3.29 µM) | > 4 |  |
| CC(=O)[C@H](C)NC(=O)[C@@H]1Cc2ccc(O)c(c2)-c2cc(ccc2OCCn2ccnc2)[C@H](N(C)C(=O)[C@H](CCCCN)NC(=O)c2ccc(-c3ccc(Cl)cc3)cc2)C(=O)N[C@@H](C)C(=O)N1 [Compound 331] |  |  |  | MIC (MRSA COL (NRS100); [4]): 2 µg/mL (≈ 2.18 µM); MIC [1, 3]: 8 µg/mL (≈ 8.7 µM); MIC [2, 4]: 16 µg/mL (≈ 17.4 µM) |
| CC(=O)[C@H](C)NC(=O)[C@@H]1Cc2ccc(O)c(c2)-c2cc(ccc2OCCN2CCN(C)CC2)[C@H](N(C)C(=O)[C@H](CCCCN)NC(=O)c2ccc(-c3ccc(Cl)cc3)cc2)C(=O)N[C@@H](C)C(=O)N1 [Compound 332] |  |  |  | MIC (MRSA COL (NRS100); [4]): 8 µg/mL (≈ 8.41 µM); MIC [1, 3]: 64 µg/mL (≈ 67.3 µM); MIC [2, 4]: 64 µg/mL (≈ 67.3 µM) |
| C[C@@H]1NC(=O)[C@@H](N(C)C(=O)[C@H](CCCCN)NC(=O)c2ccc(-c3ccc(Cl)cc3)cc2)c2ccc(O)c(c2)-c2cc(ccc2O)C[C@@H](C(=O)N[C@@H](C)C(=O)N(C)c2cc[nH]n2)NC1=O [Compound 333] |  |  |  | MIC (MRSA COL (NRS100); [4]): 16 µg/mL (≈ 17.7 µM); MIC [1, 3]: 32 µg/mL (≈ 35.3 µM); MIC [2, 4]: 64 µg/mL (≈ 70.6 µM) |
| CCCCc1ccc(-c2ccc(C(=O)N[C@@H](CCCN)C(=O)N(C)[C@@H]3C(=O)N[C@@H](C)C(=O)N[C@H](C(=O)NCC(=O)O)Cc4ccc(OCCN)c(c4)-c4cc3ccc4OCCN)cc2)cc1 [Compound 334] |  |  | 0.13 (≈ 0.143 µM) | MIC (MRSA COL (NRS100); [6]): 0.38 µg/mL (≈ 0.419 µM); MIC [2, 6]: 1 µg/mL (≈ 1.1 µM) |
| CCCCc1ccc(-c2ccc(C(=O)N[C@@H](CCCN)C(=O)N(C)[C@@H]3C(=O)N[C@@H](C)C(=O)N[C@H](C(N)=O)Cc4ccc(OCCN)c(c4)-c4cc3ccc4OCCN)cc2)cc1 [Compound 335] | 0.063 (≈ 0.0742 µM) | 0.19 (≈ 0.224 µM) | 0.13 (≈ 0.153 µM) |  |
| CCCCc1ccc(-c2ccc(C(=O)N[C@@H](CCCN)C(=O)N(C)[C@@H]3C(=O)N[C@@H](C)C(=O)N[C@H](CO)Cc4ccc(OCCN)c(c4)-c4cc3ccc4OCCN)cc2)cc1 [Compound 336] | 0.13 (≈ 0.155 µM) | 0.5 (≈ 0.598 µM) | 0.25 (≈ 0.299 µM) |  |
| CCCCc1ccc(-c2ccc(C(=O)N[C@@H](CCCN)C(=O)N(C)[C@@H]3C(=O)N[C@@H](C)C(=O)N[C@H](C(=O)NS(C)(=O)=O)Cc4ccc(OCCN)c(c4)-c4cc3ccc4OCCN)cc2)cc1 [Compound 337] | 0.75 (≈ 0.809 µM) | 2 (≈ 2.16 µM) | 0.047 (≈ 0.0507 µM) |  |
| CCCCc1ccc(-c2ccc(C(=O)N[C@@H](CCCN)C(=O)N(C)[C@@H]3C(=O)N[C@@H](C)C(=O)N[C@H](C(=O)NS(=O)(=O)C(F)(F)F)Cc4ccc(OCCN)c(c4)-c4cc3ccc4OCCN)cc2)cc1 [Compound 338] |  |  | 0.63 (≈ 0.642 µM) | MIC (MRSA COL (NRS100); [6]): 2.5 µg/mL (≈ 2.55 µM); MIC [2, 6]: 3 µg/mL (≈ 3.06 µM) |
| CCCCCCCCCCNCCC(=O)N[C@@H](CCCCN)C(=O)N(C)[C@@H]1C(=O)N[C@@H](C)C(=O)N[C@H](C(=O)N[C@@H](C)C(C)=O)Cc2ccc(O)c(c2)-c2cc1ccc2OC1O[C@H](CO)[C@@H](O)[C@H](O)[C@H]1N (stereo partly shown) [Compound 339] | 1 (≈ 1.02 µM) | 2 (≈ 2.03 µM) | > 4 |  |
| CCCCCCCCCCNCCC(=O)N[C@@H](CCCCN)C(=O)N(C)[C@@H]1C(=O)N[C@@H](C)C(=O)N[C@H](C(=O)N[C@@H](C)C(C)=O)Cc2ccc(OC3O[C@H](CO)[C@@H](O)[C@H](O)[C@H]3N)c(c2)-c2cc1ccc2OC1O[C@H](CO)[C@@H](O)[C@H](O)[C@H]1N (stereo partly shown) [Compound 340] | 2 (≈ 1.75 µM) | > 4 | > 4 |  |
